# Laboratory results reported in US20160052937A1, “Tetrahydroimidazo[1,5-d][1,4]oxazepine compound” (Eisai R&D Management Co., Ltd., priority 2014, published 2016).
# Experiments:
# [1] = target: T1, human metabotropic glutamate receptor 2 (mGluR2) (Homo sapiens, UniProt Q14416); test: [35S]GTPγS binding assay (Affinity to mGluR2); assay type: biochemical; conditions: cell membrane fraction of HEK293 cells stably expressing human mGluR2; glutamic acid 10 μM
# T1 construct: expressed in transfected cells; co-expressing human SLC1A3), cell membrane fraction
# T1 sequence (Q14416 19-872): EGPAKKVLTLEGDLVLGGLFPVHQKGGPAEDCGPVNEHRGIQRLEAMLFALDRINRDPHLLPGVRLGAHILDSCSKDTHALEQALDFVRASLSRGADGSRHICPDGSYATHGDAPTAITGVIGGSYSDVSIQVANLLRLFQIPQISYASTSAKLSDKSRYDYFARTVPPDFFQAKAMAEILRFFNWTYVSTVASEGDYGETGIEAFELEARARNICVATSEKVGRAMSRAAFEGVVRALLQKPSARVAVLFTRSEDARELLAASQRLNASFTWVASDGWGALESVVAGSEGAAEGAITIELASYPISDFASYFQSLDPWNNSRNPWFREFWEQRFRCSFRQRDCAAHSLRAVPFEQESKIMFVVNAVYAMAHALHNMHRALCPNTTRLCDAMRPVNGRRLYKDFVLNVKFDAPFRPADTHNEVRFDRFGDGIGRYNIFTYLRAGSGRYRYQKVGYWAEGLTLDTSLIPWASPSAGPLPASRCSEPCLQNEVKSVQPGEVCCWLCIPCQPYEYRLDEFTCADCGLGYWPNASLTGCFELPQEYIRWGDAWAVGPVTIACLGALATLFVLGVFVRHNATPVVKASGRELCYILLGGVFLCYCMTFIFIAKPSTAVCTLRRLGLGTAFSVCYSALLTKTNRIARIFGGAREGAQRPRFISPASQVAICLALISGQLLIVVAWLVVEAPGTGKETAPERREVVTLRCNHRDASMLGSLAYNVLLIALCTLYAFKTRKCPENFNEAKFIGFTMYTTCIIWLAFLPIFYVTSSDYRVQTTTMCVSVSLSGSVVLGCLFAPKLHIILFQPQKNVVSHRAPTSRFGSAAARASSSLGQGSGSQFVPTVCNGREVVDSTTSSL
# Procedure: (Preparation of Cell Membrane Fraction of HEK293 Cells Stably Expressing Human Metabotropic Glutamate Receptor 2 (mGluR2))
# HEK293 cells stably expressing human mGluR2 and human glutamate transporter SLC1A3 were cultured in a Dulbecco's modified Eagle's medium with 10% fetal bovine serum (50 units/mL of penicillin, 50 μg/mL of streptomycin, 60 μg/mL of geneticin, 400 μg/mL of hygromycin B and 2 mM of glutamine) at 37° C. under 5% CO2. Confluent cell cultures were washed twice with PBS(−), and then scraped off with a cell scraper, and subjected to centrifugal separation at 4° C. and 1500 rpm for 5 minutes for collecting cells. The centrifuged sediment (cell pellet) was homogenized in a 20 mM HEPES buffer containing 10 mM EDTA (pH 7.4) by using sonicator and centrifuged at 4° C. and 1500×g for 30 minutes. The supernatant (soluble fraction) was subjected to the centrifugal separation at 4° C. and 40,000×g for 30 minutes, and thus, insoluble fraction was obtained. After additional centrifugally washing the obtained fraction with 20 mM HEPES buffer containing 10 mM EDTA (pH 7.4), the pellet was centrifugally suspended with a 20 mM HEPES buffer containing 0.1 mM EDTA, and the cell membrane fraction was obtained by the centrifugal separation at 4° C. and 40,000×g for 30 minutes. The thus obtained cell membrane fraction was suspended in a 20 mM HEPES buffer containing 0.1 mM EDTA in a protein concentration of 3 mg/mL, which was stored at −80° C.
# ([^35S]GTPγS binding assay)
# The frozen cell membrane fraction prepared as described above was thawed before use, and the resultant was diluted with a buffer for a binding assay (final concentrations: 20 mM HEPES, 100 mM NaCl, 1 mM MgCl2, 3 μM GDP, 300 μg/mL saponin, 0.1% BSA). The compound of each example was added to a cell membrane fraction containing 1.8 to 3 μg/assay of membrane protein on a plate, followed by incubation at room temperature for 30 minutes. Thereafter, with glutamic acid (in a final concentration of 10 μM) added thereto, incubation was performed at room temperature for 15 minutes, and thereafter, [^35S]GTPγS (in a final concentration of 0.8 kBq) and 588 μg WGA-SPA beads were added thereto, followed by incubation at room temperature for 1 hour. After the incubation, the plate was subjected to the centrifugal separation at 2,500 rpm and room temperature, and then, membrane cell binding radioactivity was measured with a top count.
# A [^35S]GTPγS binding amount obtained by performing the above-described reaction in the absence of glutamic acid was defined as nonspecific binding, and a difference from a [^35S]GTPγS binding amount obtained in the presence of glutamic acid was defined as specific binding. On the basis of ratios of inhibiting the specific binding at various concentrations of the compounds of the respective examples, inhibition curves were obtained. Concentrations of the compounds of the respective examples at which the specific [^35S]GTPγS binding amount was suppressed by 50% (IC50 values) were calculated on the basis of the inhibition curves and shown in Table 3.
# [2] = system: Long-Evans rats, cognitive impairment induced by scopolamine; test: Novel object recognition (NOR) test in rats; assay type: in vivo, rat; conditions: oral; scopolamine hydrobromide 0.3 mg/kg i.p.; statistically significant difference in discrimination index vs scopolamine alone group
# Procedure: Six-week old male Long-Evans rats were used for this test. For 2 days before starting the test, the rats were acclimated to experimental operations such as administration and a test device (that is, a black or gray plastic cage with a width of 40 cm, a depth of 30 cm and a height of 45 cm). Each test compound was dissolved in a 0.1 N hydrochloric acid to be orally administered. Thirty minutes after the administration, scopolamine hydrobromide was intraperitoneally administered at a 0.3 mg/kg dose, so as to induce cognitive impairment. After another 30 minutes, each rat was acclimated in the test device for 3 minutes, and thereafter, two blocks in the same shape were put in the test device as acquisition trial, and exploring time for each block was measured for 5 minutes. Two hours after the acquisition trial, the rat was acclimated in the test device for 3 minutes, and thereafter, the same block as those used in the acquisition trial and a new block in a different shape were put in the cage for retention trial. The exploring time for each block was measured for 3 minutes, and a ratio of the exploring time for the newly used block to the sum of the exploring times for the respective blocks was calculated as a discrimination index. The thus obtained discrimination indexes were compared among a group of rats to which a medium alone was administered (medium group), a group of rats to which scopolamine alone was administered (scopolamine alone group) and a group of rats to which both the test compound and scopolamine were administered, so as to evaluate the action of the test compound on the novel object recognition function (cognitive function) of the rats.
# Each discrimination index was shown as an average and a standard error. The statistical significance between the medium group and the scopolamine alone group was analyzed by the independent t-test. The statistical significance between the scopolamine alone group and each sample group was analyzed by one-way analysis of variance and then by Dunnett's multiple comparison test. The significance level was set to 5% on both sides. […] The analysis was carried out by using Prism 5 for Windows for Japanese, ver. 5.03. A minimum effective dose at which a statistically significant difference was found between a group suffering from the cognitive impairment induced by scopolamine and a group treated with each compound is shown in Table 4.
IC50 [1] [nM],SMILES,Minimum effective dose [2]
3.7,"CC(C)NS(=O)(=O)c1ccc(-c2nc(-c3ccc(F)cc3)n3c2CCO[C@H](C)C3)cc1 [Example 1, (R)-4-(3-(4-fluorophenyl)-6-methyl-5,6,8,9-tetrahydroimidazo[1,5-d][1,4]oxazepin-1-yl)-N-isopropylbenzenesulfonamide]","1 mg/kg, p.o."
3.1,"COc1ccc(-c2nc(-c3ccc(S(=O)(=O)NC(C)(C)C)cc3)c3n2C[C@@H](CF)OCC3)cc1 [Example 2, (S)—N-(tert-butyl)-4-(6-(fluoromethyl)-3-(4-methoxyphenyl)-5,6,8,9-tetrahydroimidazo[1,5-d][1,4]oxazepin-1-yl)benzenesulfonamide]","3 mg/kg, p.o."
5,"COc1ccc(-c2nc(-c3ccc(S(=O)(=O)NC4CCC4)cc3)c3n2C[C@@H](C)OCC3)cc1 [Example 3, (R)—N-cyclobutyl-4-(3-(4-methoxyphenyl)-6-methyl-5,6,8,9-tetrahydroimidazo[1,5-d][1,4]oxazepin-1-yl)benzenesulfonamide]","1 mg/kg, p.o."
3.1,"COc1ccc(-c2nc(-c3ccc(S(=O)(=O)NC(C)C)cc3)c3n2C[C@@H](C)OCC3)cc1 [Example 8, (R)—N-isopropyl-4-(3-(4-methoxyphenyl)-6-methyl-5,6,8,9-tetrahydroimidazo[1,5-d][1,4]oxazepin-1-yl)benzenesulfonamide]","3 mg/kg, p.o."
4.3,"COc1ccc(-c2nc(-c3ccc(S(=O)(=O)NC(C)C)cc3)c3n2C[C@@H](C)OCC3)cc1F [Example 62, (R)—N-isopropyl-4-(3-(3-fluoro-4-methoxyphenyl)-6-methyl-5,6,8,9-tetrahydroimidazo[1,5-d][1,4]oxazepin-1-yl)benzenesulfonamide]",–
3.9,COc1ccc(-c2nc(-c3ccc(S(=O)(=O)NC(C)(C)C)cc3)c3n2C[C@@H](C)OCC3)cc1F [Example 63],–
4.5,Cc1ccc(-c2nc(-c3ccc(S(=O)(=O)NC(C)(C)C)cc3)c3n2C[C@@H](C)OCC3)cc1F [Example 64],–
6.7,Cc1ccc(-c2nc(-c3ccc(S(=O)(=O)NC(C)C)cc3)c3n2C[C@@H](C)OCC3)cc1F [Example 65],–
10.9,C[C@@H]1Cn2c(-c3ccc(OC(F)F)c(F)c3)nc(-c3ccc(S(=O)(=O)NC(C)(C)C)cc3)c2CCO1 [Example 66],–
